Results: paper PMC10674894 (Viruses, 2023)
Several values for one entry are separate records, joined by “and”; a condition that tells them apart may be missing. Equal entries are not always repeated. Where two headings read alike, the source gives them in different places.

Assays:
CHIKV DRDE-07 = experiment: In vitro screening against CHIKV (CPE inhibition and MTT cell viability); type: cell-based, chikungunya virus; conditions: for Cell Viability: CHIKV-infected Vero cells treated at MNTD, MTT, cell control + DMSO = 100%; for Cell Viability / % Cell viability: 72 hpi; for CPE / % Cell viability: Table S1, CHIKV-infected Vero cells; for CPE: arbitrary score of cytopathic effect at >48 hpi; for % Cell viability: MTT assay
Vero cells = experiment: Cytotoxicity MTT assay in Vero cells (MNTD, CC50); type: cell-based, African green monkey
RRV T48 strain [1] = experiment: Immunofluorescence and MTT cell viability assays, RRV; type: cell-based, Ross River virus; conditions: 300 µM, 36 hpi
CHIKV [2] = experiment: Cytopathic effect inhibition and cell viability dose-response assay; type: cell-based, chikungunya virus
RRV T48 strain [3] = experiment: Plaque assay, RRV; type: cell-based, Ross River virus; conditions: 300 µM; for RRV titer: MOI 0.1; for percent reduction in virus titer: with respect to virus control
CHIKV [4] = experiment: Immunofluorescence assay, CHIKV E2 mAb; type: cell-based, chikungunya virus
CHIKV [5] = experiment: Plaque assay, CHIKV; type: cell-based, chikungunya virus; conditions: 300 μM, MOI 0.1
CHIKV [6] = experiment: Mode of inhibition (time of addition), MTT cell viability; type: cell-based, chikungunya virus; conditions: for viability at 300 µM: Chikungunya virus
CHIKV-E2 protein = experiment: Western blot of CHIKV E2 protein; type: cell-based, chikungunya virus; conditions: 18 hpi, compared to virus control
[7] = Cytotoxicity MTT assay in Vero cells (MNTD, CC50); type: cell-based, African green monkey; conditions: African green monkey
[8] = maximum nontoxic dose in Vero cells, MTT

| Molecule | Cell Viability (CHIKV DRDE-07) | CPE (CHIKV DRDE-07) | MNTD (Vero cells; Table S1, Vero cells) | MNTD (Vero cells; [8]) | % Cell viability (CHIKV DRDE-07) | further results |
| --- | --- | --- | --- | --- | --- | --- |
| Nc1nc(N)c2ccc(F)cc2n1 [DCR 136, 7-fluoro-quinazoline-2,4-diamine] | 54% | ++ (50-30% (++)) | 250 µM | 250 µM | – | – |
| Nc1nc(N)c2cc(F)ccc2n1 [DCR 137, 6-fluoro-quinazoline-2,4-diamine] | – | + (<30%) | 300 µM | 300 µM | – | green fluorescence (RRV immunofluorescence) (RRV T48 strain [1]): barely detectable; cytopathic effect (microscopy) (CHIKV [2]; 150 and 300 µM, CHIKV-infected Vero cells): delayed and dose-dependent CPE; EC50 (CHIKV [2]; Chikungunya virus, Vero, CHIKV replication in Vero cells, post-treatment, MTT at 48 hpi): ~37 µM; RRV titer (RRV T48 strain [3]; 24 hpi, untreated 3.0 × 10^6): 1.1 × 10^2 PFU/mL; percent reduction in virus titer (RRV T48 strain [3]; 24 hpi): 99.99%; RRV titer (RRV T48 strain [3]; 48 hpi, untreated 1.2 × 10^8): 1.7 × 10^5 PFU/mL; percent reduction in virus titer (RRV T48 strain [3]; 48 hpi): 99.85%; viral fluorescence (immunofluorescence) (CHIKV [4]; 300 µM, CHIKV MOI 0.1, 36 hpi): complete abrogation of viral fluorescence; protection compared to ribavirin (CHIKV [4]; CHIKV, immunofluorescence, ribavirin positive control): higher protection; CHIKV titer (CHIKV [5]; 24 hpi, virus control 2.8 × 10^6): 1.8 × 10^2 PFU/mL; CHIKV titer (CHIKV [5]; 48 hpi, virus control 9.1 × 10^8): 1.9 × 10^5 PFU/mL; viability at 300 µM (CHIKV [6]; 2 h, read-out: cell viability, post-treatment): > 95%; viability at 300 µM (CHIKV [6]; read-out: cell viability, pre-treatment): 15%; viability at 300 µM (CHIKV [6]; read-out: cell viability, simultaneous treatment): 29%; effect of pre-treatment or simultaneous treatment on viral infection (CHIKV [6]; pre-treatment 24 h or simultaneous 1 h, CHIKV MOI 1): no inhibitory effects; CHIKV-E2 protein expression (CHIKV-E2 protein): significant decrease; CC50 at 72 h ([7]; Vero cells, MTT): > 1100 µM; viability at 72 h ([7]; uninfected Vero cells at MNTD, read-out: cell viability at MNTD): ~90%; MNTD value (Vero cells; Vero cells): > 300 μM and ~ 312 μM; cytotoxicity (cell morphology) (Vero cells; Vero cells, 312.5 µM, 48 hpi, microscopy): No significant cytotoxicity |
| Nc1nc(N)c2cc(F)c(F)cc2n1 [DCR 138, 6,7-difluoro-quinazoline-2,4-diamine] | 51% | ++ (50-30% (++)) | 250 µM | 250 µM | – | – |
| COc1cccc2nc(N)nc(N)c12 [DCR 139, 5-methoxy-quinazoline-2,4-diamine] | 57% | ++ (50-30% (++)) | 250 µM | 250 µM | – | – |
| (E)-N'-(5-bromo-2-methoxybenzylidene)isonicotinohydrazide [DCR39] | – | ++++ (>60% (++++)) | 31.25 µM | – | 3.81% | – |
| (E)-N'-(5-bromo-2-methoxybenzylidene)nicotinohydrazide [DCR24] | – | ++++ (>60% (++++)) | 15.6 µM | – | 25.23% | – |
